Among the data in patent US20260022142A1, “MACROCYCLIC IMMUNOMODULATORS” (Bristol-Myers Squibb Company, priority 2022, published 2026) are IC50 values, retold here.

Numbered stars: 1 amine (or outer) side, 2 acyl side, 3 side chain; on linkers, the order of the positions; unused ones are H or OH. Bridge positions count the residues as written; N and C are the ends. Square brackets hold non-standard residues; d marks the D form. Peptide text beside a SMILES is read from it. * marks the point of attachment. ξ: configuration not given here. Phe(4-COOH) = N[C@@H](Cc1ccc(C(=O)O)cc1)C(=O)O; Bip = N[C@@H](Cc1ccc(-c2ccccc2)cc1)C(=O)O; Nle(6-COOH) = N[C@@H](CCCCC(=O)O)C(=O)O; Phe(3-Me) = Cc1cccc(C[C@H](N)C(=O)O)c1; PEG6 = NCCOCCOCCOCCOCCOCCOCCC(=O)O; X12 = CC(N)[C@H](N[*:1])C(=O)[*:2]; 4Pal = N[C@@H](Cc1ccncc1)C(=O)O; Aad = N[C@@H](CCCC(=O)O)C(=O)O; Cha = N[C@@H](CC1CCCCC1)C(=O)O; Cit = NC(=O)NCCC[C@H](N)C(=O)O; Ile(3ξ) = CCC(C)[C@H](N)C(=O)O; Thr(3ξ) = CC(O)[C@H](N)C(=O)O; Tle = CC(C)(C)[C@H](N)C(=O)O; 12Ado = NCCCCCCCCCCCC(=O)O; Carboxymethyl = O=C(O)C*; Orn = NCCC[C@H](N)C(=O)O; Aun = NCCCCCCCCCCC(=O)O; Dab = NCC[C@H](N)C(=O)O; Dap = NC[C@H](N)C(=O)O; AEEA = NCCOCCOCC(=O)O

As a reminder, the IC50 is the concentration at which inhibition is half-maximal.

The target of this assay is T1, PD-1/PD-L1 interaction (PE-labeled human PD-L1-Ig binding to Jurkat cell line over-expressing human PD-1) (Homo sapiens, UniProt Q15116).
T1 construct: expressed in transfected cells; host or cells: Jurkat
T1 sequence (Q15116 25-288): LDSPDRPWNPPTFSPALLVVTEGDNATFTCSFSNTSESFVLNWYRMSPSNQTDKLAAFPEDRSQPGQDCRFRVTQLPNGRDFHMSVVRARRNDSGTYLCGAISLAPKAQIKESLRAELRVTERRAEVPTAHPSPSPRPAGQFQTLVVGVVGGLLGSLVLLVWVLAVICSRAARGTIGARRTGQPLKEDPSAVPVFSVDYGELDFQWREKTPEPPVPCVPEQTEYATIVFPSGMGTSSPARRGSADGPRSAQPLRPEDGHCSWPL
Nature of the assay: Jurkat-PD-1 Cell Binding High-Content Screening Assay (CBA). In kind it is cell-based. As to conditions: Jurkat cell line over-expressing human PD-1; PE-labeled PD-L1-Ig 20 nM final; read-out: Jurkat hPD1-PDL1 IC50. An outline of the steps:
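Read-out is high-content imaging of cell-bound phycoerythrin-tagged PD-L1-Ig on fixed, Hoechst-counterstained Jurkat cells that over-express human PD-1. Compound exposure lasts 2 h at 37° C before the labeled ligand (20 nM final) is added for a further hour.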
In the case of `Cc1cccc(C[C@@H]2NC(=O)[C@H](CC(=O)O)NC(=O)[C@H](Cc3ccc(OCC(=O)O)cc3)NC(=O)[C@H](CCCNC(=N)N)NC(=O)CSC[C@@H](C(=O)N[C@@H](CCN)C(=O)NCCCCCCCCCCC(=O)O)NC(=O)[C@H](CCCNC(N)=O)NC(=O)[C@H](C(C)C)NC(=O)[C@H](CC3CCCCC3)NC(=O)[C@H](CCN)NC(=O)[C@@H](CC(C)C)NC(=O)[C@H](CCCN)NC(=O)[C@H](Cc3ccc(O)cc3)NC(=O)[C@H](Cc3ccc(-c4ccccc4)cc3)NC(=O)[C@H](C(C)C)NC2=O)c1` [Compound 2723] ({CH2CO}-RY(Carboxymethyl)D[Phe(3-Me)]V[Bip]Y[Orn][dL][Dab][Cha]V[Cit]C[Dab][Aun]-OH; thioether N-14), the IC50 amounted to 0.0269 µM. As for `CC(C)C[C@H]1NC(=O)[C@H](CCCN)NC(=O)[C@H](C(C)C)NC(=O)[C@H](Cc2ccc(-c3ccccc3)cc2)NC(=O)[C@H](C(C)C)NC(=O)[C@H](Cc2c[nH]c3ccccc23)NC(=O)[C@H](CC(=O)O)NC(=O)[C@H](Cc2c[nH]cn2)NC(=O)[C@H](CCCNC(=N)N)NC(=O)CSC[C@@H](C(=O)N[C@@H](CCN)C(=O)NCCCCCCCCCCC(=O)O)NC(=O)[C@H](CCCCN)NC(=O)[C@H](C(C)C)NC(=O)[C@H](CC2CCCCC2)NC(=O)[C@H](CCN)NC1=O` [Compound 3290] ({CH2CO}-RHDWV[Bip]V[Orn][dL][Dab][Cha]VKC[Dab][Aun]-OH; thioether N-14), the IC50 is 0.0395 µM.

As to `CCC(C)[C@@H]1NC(=O)[C@H](Cc2ccc(-c3ccccc3)cc2)NC(=O)[C@H](C(C)C)NC(=O)[C@H](Cc2c[nH]c3ccccc23)NC(=O)[C@H](CC(=O)O)NC(=O)[C@H](Cc2ccc(OCC(=O)O)cc2)NC(=O)[C@H](CCCNC(=N)N)NC(=O)CSC[C@@H](C(=O)N[C@H](CC(N)=O)C(=O)NCCCCCCCCCCC(=O)O)NC(=O)[C@H](CCCN)NC(=O)[C@H](C(C)C)NC(=O)[C@H](CC2CCCCC2)NC(=O)[C@H](CCN)NC(=O)[C@@H](CC(C)C)NC(=O)[C@H](CCN)NC1=O` (stereo partly drawn) [Compound 3285] ({CH2CO}-RY(Carboxymethyl)DWV[Bip][Ile(3ξ)][Dab][dL][Dab][Cha]V[Orn]C[dN][Aun]-OH; thioether N-14), the IC50 is 0.0093 µM.

On to `CC(=O)NCCCC[C@@H]1NC(=O)[C@H](Cc2ccc(-c3ccccc3)cc2)NC(=O)[C@H](C(C)C)NC(=O)[C@H](Cc2cccc(C)c2)NC(=O)[C@H](CC(=O)O)NC(=O)[C@H](Cc2ccc(OCC(=O)O)cc2)NC(=O)[C@H](CCCNC(=N)N)NC(=O)CSC[C@@H](C(=O)N[C@H](CC(N)=O)C(=O)NCCCCCCCCCCC(=O)O)NC(=O)[C@H](C(C)O)NC(=O)[C@H](C(C)C)NC(=O)[C@H](CC2CCCCC2)NC(=O)[C@H](CCN)NC(=O)[C@@H](CC(C)C)NC(=O)[C@H](CCCN)NC1=O` (stereo partly drawn) [Compound 3548] ({CH2CO}-RY(Carboxymethyl)D[Phe(3-Me)]V[Bip]K(Ac)[Orn][dL][Dab][Cha]V[Thr(3ξ)]C[dN][Aun]-OH; thioether N-14), for which the IC50 is 0.0111 µM.

In the case of `CC(C)C[C@H]1NC(=O)[C@H](CCCN)NC(=O)[C@H](C(C)C)NC(=O)[C@H](Cc2ccc(-c3ccccc3)cc2)NC(=O)[C@H](C(C)C)NC(=O)[C@H](Cc2c[nH]c3ccccc23)NC(=O)[C@H](CC(=O)O)NC(=O)[C@H](Cc2ccc(OCC(=O)O)cc2)NC(=O)[C@H](CCCNC(=N)N)NC(=O)CSC[C@@H](C(=O)NCC(=O)NCCOCCOCC(=O)N[C@@H](CCCN)C(=O)NCCCCCCCCCCCC(=O)O)NC(=O)[C@H](CO)NC(=O)[C@H](C(C)C)NC(=O)[C@H](CC2CCCCC2)NC(=O)[C@H](CCN)NC1=O` [Compound 3181] ({CH2CO}-RY(Carboxymethyl)DWV[Bip]V[Orn][dL][Dab][Cha]VSCG[AEEA][Orn][12Ado]-OH; thioether N-14), the half-maximal inhibitory concentration (IC50) was determined as 0.0076 µM. In the case of `CC(C)C[C@H]1NC(=O)[C@H](CCCN)NC(=O)[C@H](CCC(=O)O)NC(=O)[C@H](Cc2ccc(-c3ccccc3)cc2)NC(=O)[C@H](C(C)C)NC(=O)[C@H](Cc2c[nH]c3ccccc23)NC(=O)[C@H](CC(=O)O)NC(=O)[C@H](Cc2ccc(C(=O)O)cc2)NC(=O)[C@H](C(C)N)NC(=O)CSC[C@@H](C(=O)N[C@@H](CC(N)=O)C(=O)NCCOCCOCCOCCOCCOCCOCCC(=O)N[C@@H](CCCN)C(=O)NCCCCCCCCCCCC(=O)O)NC(=O)[C@H](CO)NC(=O)[C@H](C(C)C)NC(=O)[C@H](CC2CCCCC2)NC(=O)[C@H](CCN)NC1=O` (stereo partly drawn) [Compound 3046] ({CH2CO}-[X12][Phe(4-COOH)]DWV[Bip]E[Orn][dL][Dab][Cha]VSCN[PEG6][Orn][12Ado]-OH; thioether N-14), the IC50 was 0.0131 µM.

Turning to `Cc1cccc(C[C@@H]2NC(=O)[C@H](CC(=O)O)NC(=O)[C@H](Cc3ccc(OCC(=O)O)cc3)NC(=O)[C@H](Cc3ccncc3)NC(=O)CSC[C@@H](C(=O)N[C@@H](CCN)C(=O)NCCOCCOCC(=O)NCCCCCCCCCCC(=O)O)NC(=O)[C@H](CCCN)NC(=O)[C@H](C(C)C)NC(=O)[C@H](CC3CCCCC3)NC(=O)[C@H](CCN)NC(=O)[C@@H](CC(C)C)NC(=O)[C@H](CCCN)NC(=O)[C@H](Cc3ccc(O)cc3)NC(=O)[C@H](Cc3ccc(-c4ccccc4)cc3)NC(=O)[C@H](C(C)C)NC2=O)c1` [Compound 2705] ({CH2CO}-[4Pal]Y(Carboxymethyl)D[Phe(3-Me)]V[Bip]Y[Orn][dL][Dab][Cha]V[Orn]C[Dab][AEEA][Aun]-OH; thioether N-14), the half-inhibitory concentration (IC50) was 0.0083 µM. As to `Cc1cccc(C[C@@H]2NC(=O)[C@H](CC(=O)O)NC(=O)[C@H](Cc3ccc(OCC(=O)O)cc3)NC(=O)[C@H](CCCNC(=N)N)NC(=O)CSC[C@@H](C(=O)N[C@@H](CCN)C(=O)NCCCCCCCCCCC(=O)O)NC(=O)[C@H](CCCNC(N)=O)NC(=O)[C@H](C(C)C)NC(=O)[C@H](CC3CCCCC3)NC(=O)[C@H](CCN)NC(=O)[C@@H](CC(C)C)NC(=O)[C@H](CCCN)NC(=O)[C@H](CCCCC(=O)O)NC(=O)[C@H](Cc3ccc(-c4ccccc4)cc3)NC(=O)[C@H](C(C)C)NC2=O)c1` [Compound 3390] ({CH2CO}-RY(Carboxymethyl)D[Phe(3-Me)]V[Bip][Nle(6-COOH)][Orn][dL][Dab][Cha]V[Cit]C[Dab][Aun]-OH; thioether N-14), the IC50 was determined as 0.009 µM.

In the case of `CC(C)C[C@H]1NC(=O)[C@H](CCCN)NC(=O)[C@H](C(C)C)NC(=O)[C@H](Cc2ccc(-c3ccccc3)cc2)NC(=O)[C@H](C(C)C)NC(=O)[C@H](Cc2c[nH]c3ccccc23)NC(=O)[C@H](CC(=O)O)NC(=O)[C@H](Cc2ccc(OCC(=O)O)cc2)NC(=O)[C@H](CN)NC(=O)CSC[C@@H](C(=O)NCCOCCOCC(=O)N[C@@H](CCCCN)C(=O)NCCCCCCCCCCC(=O)O)NC(=O)[C@H](C(C)O)NC(=O)[C@H](C(C)C)NC(=O)[C@H](CC2CCCCC2)NC(=O)[C@H](CC(N)=O)NC1=O` (stereo partly drawn) [Compound 3128] ({CH2CO}-[Dap]Y(Carboxymethyl)DWV[Bip]V[Orn][dL]N[Cha]V[Thr(3ξ)]C[AEEA]K[Aun]-OH; thioether N-14), the IC50 turned out to be 0.0155 µM. Under `Cc1cccc(C[C@@H]2NC(=O)[C@H](CC(=O)O)NC(=O)[C@H](Cc3ccc(OCC(=O)O)cc3)NC(=O)[C@H](CN)NC(=O)CSC[C@@H](C(=O)N[C@@H](CCN)C(=O)NCCCCCCCCCCC(=O)O)NC(=O)[C@H](CCCC(N)=O)NC(=O)[C@H](C(C)C)NC(=O)[C@H](CC3CCCCC3)NC(=O)[C@H](CCN)NC(=O)[C@@H](CC(C)C)NC(=O)[C@H](CCCN)NC(=O)[C@H](Cc3ccc(O)cc3)NC(=O)[C@H](Cc3ccc(-c4ccccc4)cc3)NC(=O)[C@H](C(C)C)NC2=O)c1` [Compound 2751] ({CH2CO}-[Dap]Y(Carboxymethyl)D[Phe(3-Me)]V[Bip]Y[Orn][dL][Dab][Cha]V[Aad](NH2)C[Dab][Aun]-OH; thioether N-14) stands 0.0125 µM. As to `Cc1cccc(C[C@@H]2NC(=O)[C@H](CC(=O)O)NC(=O)[C@H](Cc3ccc(OCC(=O)O)cc3)NC(=O)[C@H](CN)NC(=O)CSC[C@@H](C(=O)N[C@@H](CCN)C(=O)NCCCCCCCCCCC(=O)O)NC(=O)[C@H](CO)NC(=O)[C@H](Cc3cnc[nH]3)NC(=O)[C@H](CC3CCCCC3)NC(=O)[C@H](CCN)NC(=O)[C@@H](CC(C)C)NC(=O)[C@H](CCCN)NC(=O)[C@H](Cc3ccc(OCC(=O)O)cc3)NC(=O)[C@H](Cc3ccc(-c4ccccc4)cc3)NC(=O)[C@H](Cc3ccc(C(=O)O)cc3)NC2=O)c1` [Compound 3705] ({CH2CO}-[Dap]Y(Carboxymethyl)D[Phe(3-Me)][Phe(4-COOH)][Bip]Y(Carboxymethyl)[Orn][dL][Dab][Cha]HSC[Dab][Aun]-OH; thioether N-14), the IC50 is 0.0242 µM.

Consider `CC(=O)NCCCC[C@@H]1NC(=O)[C@H](Cc2ccc(-c3ccccc3)cc2)NC(=O)[C@H](C(C)C)NC(=O)[C@H](Cc2cccc(C)c2)NC(=O)[C@H](CC(=O)O)NC(=O)[C@H](Cc2ccc(OCC(=O)O)cc2)NC(=O)[C@H](CCCNC(=N)N)NC(=O)CSC[C@@H](C(=O)N[C@@H](CCN)C(=O)NCCCCCCCCCCC(=O)O)NC(=O)[C@H](C(C)O)NC(=O)[C@H](C(C)(C)C)NC(=O)[C@H](CC2CCCCC2)NC(=O)[C@H](CCN)NC(=O)[C@@H](CC(C)C)NC(=O)[C@H](CCCN)NC1=O` (stereo partly drawn) [Compound 3560] ({CH2CO}-RY(Carboxymethyl)D[Phe(3-Me)]V[Bip]K(Ac)[Orn][dL][Dab][Cha][Tle][Thr(3ξ)]C[Dab][Aun]-OH; thioether N-14), for which the IC50 is 0.0179 µM. Consider `Cc1cccc(C[C@@H]2NC(=O)[C@H](CC(=O)O)NC(=O)[C@H](Cc3ccc(OCC(=O)O)cc3)NC(=O)[C@H](CN)NC(=O)CSC[C@@H](C(=O)N[C@@H](CCCCN)C(=O)NCCCCCCCCCCC(=O)O)NC(=O)[C@H](CCCNC(N)=O)NC(=O)[C@H](C(C)C)NC(=O)[C@H](CC3CCCCC3)NC(=O)[C@H](CCN)NC(=O)[C@@H](CC(C)C)NC(=O)[C@H](CCCN)NC(=O)[C@H](CCCNC(N)=O)NC(=O)[C@H](Cc3ccc(-c4ccccc4)cc3)NC(=O)[C@H](C(C)C)NC2=O)c1` [Compound 2641] ({CH2CO}-[Dap]Y(Carboxymethyl)D[Phe(3-Me)]V[Bip][Cit][Orn][dL][Dab][Cha]V[Cit]CK[Aun]-OH; thioether N-14), for which the IC50 is 0.0277 µM.
